{"source": "paper PMC9376960", "about": "“Ruthenium(II)–Tris-pyrazolylmethane Complexes Inhibit Cancer Cell Growth by Disrupting Mitochondrial Calcium Homeostasis” (Journal of Medicinal Chemistry, 2022)", "key": {"[1]": {"assay": "Solubility in water (D2O) by 1H NMR", "format": "physicochemical", "settings": "for solubility: D2O, 21°C, sum of chloro and aquo complex after 2 h, 1H NMR, Me2SO2 standard", "description": "A suspension of the selected ruthenium complex (3–5 mg) in a D2O solution (0.7 mL) containing Me2SO2 as the internal standard[115] (3.36 × 10^–3 M) was vigorously stirred at 21 °C for 2 h. The resulting saturated solution was filtered over celite, transferred into an NMR tube, and analyzed by ^1H NMR and ^31P NMR spectroscopy (delay time = 3 s; number of scans = 20). The concentration (solubility) was calculated by the relative integral (starting complex + aquo complex, C^βH signal in the ^1H spectrum) with respect to Me2SO2 (δ/ppm = 3.14). NMR data are given in the Supporting Information (Figures S36–S47)."}, "[2]": {"assay": "Stability and chloride/water exchange in D2O (NMR)", "format": "physicochemical", "settings": "for Aquo species % in D2O after 48h: 48 h at 37 °C; for residual complex % in D2O: sum of chloro and aquo complexes; for Aquo species % in D2O at t0: t0 = after 2 h stirring in D2O", "description": "The same samples prepared at point (a) were used in this experiment, apart from complex 1 that was dissolved in DMSO-d6/D2O 4:1 v/v solution (0.7 mL; [Ru] = approx. […]) containing Me2SO2 as the standard.[115] After ^1H and ^31P{^1H} NMR analyses described above at point (a) (time = t0), samples were heated at 37 °C for 48 h. After cooling to room temperature, ^1H and ^31P NMR spectra were recorded. The percentage of starting complex + related aquo complex was calculated by the relative integral (C^βH signal in the ^1H spectrum) with respect to Me2SO2 (c = 3.3 × 10^–3 mol·L^–1; δ/ppm = 3.14 in D2O; δ/ppm = 2.95 in DMSO-d6/D2O 4:1 v/v), see Table 2 and S1."}, "[3]": {"assay": "Stability and speciation in deuterated cell culture medium (DMEM-d/DMSO-d6, NMR)", "format": "physicochemical", "settings": "for Aquo species % in DMEM-d/DMSO-d6 at t0 / Aquo species % in DMEM-d/DMSO-d6 after 24h: DMSO-d6-DMEM-d 1:4 v/v; for Aquo species % in DMEM-d/DMSO-d6 after 24h: 37 °C; for residual complex % in DMEM-d/DMSO-d6: after 24 h at 37 °C", "description": "Powdered DMEM cell culture medium (1000 mg/L glucose and L-glutamine, without sodium bicarbonate and phenol red; D2902; Sigma-Aldrich) was dissolved in D2O (10 mg/mL), according to the manufacturer’s instructions. The solution of deuterated cell culture medium (“DMEM-d”) was treated with Me2SO2 (6.6 × 10^–3 M) and NaH2PO4/Na2HPO4 (0.10 M, pD = 7.5)[120]−[122] and then stored at 4 °C under N2. The selected ruthenium compound (2–3 mg) was dissolved in DMSO-d6 (0.14 mL; 0.18 mL for 4) and then diluted with DMEM-d up to 0.75 mL total volume (cRu ca. 4 × 10^–3 M). The mixture was stirred for 30 min, then filtered over celite, and transferred into an NMR tube. The resulting yellow solution was analyzed by ^1H and ^31P NMR (delay time = 3 s; number of scans = 20) and then heated at 37 °C for 24 h. After cooling to room temperature, NMR analyses were repeated. Compound 1 was instead dissolved in a DMSO-d6/DMEM-d 4:1 v/v solution (0.7 mL; [Ru] = approx. 3 × 10^–3 M) containing Me2SO2 as the internal standard.[115] The percentage of the starting complex + related aquo complex was calculated by the relative integral with respect to Me2SO2 (δ/ppm = 3.16 in DMSO-d6/DMEM-d 1:4 and 1:3 v/v; δ/ppm = 2.95 in DMSO-d6/DMEM-d 4:1 v/v)."}, "[4]": {"tested_on": "cancer cell lines (MCF-7, HeLa, 518A2, HCT116, RD) vs noncancerous MRC-5pd30", "assay": "MTT panel: average IC50 of cancer cell lines and selectivity index", "format": "cell-based, human", "settings": "for SI (selectivity index): IC50 for noncancerous MRC-5pd30 vs the average IC50 value of cancer cell lines; for IC50: average of IC50 values related to cancer cell lines", "description": "In vitro antiproliferative activity of Ru complexes was determined by the MTT or, alternatively, SRB assay as already described,[84] after 72 h of incubation of cells with various concentrations of the Ru complex. The reported IC50 values are an average of three independent experiments, each consisting of three replicates per concentration."}, "[5]": {"tested_on": "HCT116 cells", "assay": "Cellular uptake of Ru (ICP-MS)", "format": "cell-based, human", "settings": "HCT116, 15 μM, 24 h; mean ± SEM", "description": "In these experiments, 1 × 10^6 HCT116 cells were seeded on 100 mm Petri dishes. After overnight preincubation in a drug-free medium, the cells were treated with the Ru complexes (15 μM) for 24 h. Afterward, the cells were extensively washed with PBS (37 °C), detached using 0.25% trypsin, washed twice with ice-cold PBS, and counted by an automatic cell counter. The cell pellets were digested using a microwave acid (HCl) digestion system (CEM Mars). The quantity of Ru taken up by the cells was determined by inductively coupled plasma mass spectrometry (ICP-MS). All experiments were carried out in triplicate."}, "[6]": {"tested_on": "mitochondrial membrane potential of HCT116 cells", "assay": "Mitochondrial membrane potential, TMRE assay", "format": "cell-based, human", "settings": "5 h; 10 μM and 2x or 4x IC50,72h", "description": "Effects of Ru complexes on mitochondrial membrane potential were assessed by TMRE staining of HCT116 cells after treatment. First, HCT116 cells were seeded on a six-well plate at a 1.5 × 10^5 cells/well density. The next day, the cells were treated with equimolar (10 μM) and equitoxic (twofold or fourfold IC50,72h) concentrations of Ru complexes for 5 h. Then, the cells were collected and stained with 100 nM TMRE in a complete DMEM medium for 30 min at 37 °C in the dark. The TMRE-containing medium was then replaced with PBS, and cells were analyzed by a BD FACSverse flow cytometer (λex = 488 nm, λem = 586 nm)."}, "[7]": {"tested_on": "HCT116 cells", "assay": "Confocal microscopy imaging of actin and tubulin", "format": "cell-based, human", "settings": "24 h at IC50", "description": "HCT116 cells were seeded on coverslips precoated with 0.1% gelatin in six-well culture plates at a density of 1 × 10^5 cells/well. […] Following the treatment, the cells were washed with PBS, fixed with 4% p-formaldehyde, washed, permeabilized with 0.1% Triton X-100, and blocked. Samples for actin staining were blocked with 1.5% BSA for 1 h and then stained with Alexa Fluor 488-conjugated Phalloidin (Thermo Fisher Scientific, 1:50 dilution, 20 min). Samples for tubulin staining were blocked with 5% goat serum for 1 h and incubated with primary antibody (anti-α-tubulin, Abcam, 1:200 dilution, 1 h) and Alexa Fluor-conjugated secondary antibody (goat antirabbit, Abcam, 1:500 dilution, 1 h). Both groups of samples were mounted with ProLong Diamond Antifade Mountant with DAPI (Invitrogen). Cells were visualized on a confocal microscope Leica TCS SP8 SMD."}, "[8]": {"settings": "DMSO-d6/DMEM-d 1:4 v/v, sum of chloro and aquo complexes"}}, "note": "Marks after values point to notes of the source that are not given here.", "data": [{"substance": "[RuCl(κ^3-tpm)(PPh3){P(OMe)3}]Cl [compound 7]", "values": [{"measurement": "solubility", "setting": "[1]", "value": "3.1 10^–3 mol·L^–1"}, {"measurement": "Aquo species % in D2O after 48h", "setting": "[2]", "value": 83, "unit": "%"}, {"measurement": "residual complex % in D2O", "setting": "[2]; after 48 h at 37 °C", "value": 100, "unit": "%"}, {"measurement": "Aquo species % in D2O at t0", "setting": "[2]", "value": 57, "unit": "%"}, {"measurement": "Aquo species % in DMEM-d/DMSO-d6 at t0", "setting": "[3]", "value": 0, "unit": "%"}, {"measurement": "Aquo species % in DMEM-d/DMSO-d6 after 24h", "setting": "[3]", "value": 16, "unit": "%"}, {"measurement": "residual complex % in DMEM-d/DMSO-d6", "setting": "[3]; [8]", "value": 95, "unit": "%"}, {"measurement": "SI (selectivity index)", "setting": "[4]", "value": 3.4}, {"measurement": "IC50", "setting": "[4]", "value": "7.1 ± 1", "unit": "µM"}, {"measurement": "Accumulation of ruthenium, ng Ru/10^6 cells", "setting": "[5]", "value": "63.3 ± 6.0", "unit": "ng Ru/10^6 cells"}, {"measurement": "decrease of TMRE fluorescence (mitochondrial depolarization)", "setting": "[6]", "value": "less potent in reducing mitochondrial membrane potential"}, {"measurement": "effect on structure, shape, and layout of tubulin and actin networks", "setting": "[7]", "value": "did not significantly affect"}]}, {"substance": "[RuCl(κ^3-tpm)(PPh3)(CNCy)]Cl [compound 8]", "values": [{"measurement": "solubility", "setting": "[1]", "value": "1.1 10^–3 mol·L^–1"}, {"measurement": "Aquo species % in D2O after 48h", "setting": "[2]", "value": 90, "unit": "%"}, {"measurement": "residual complex % in D2O", "setting": "[2]; after 48 h at 37 °C", "value": 92, "unit": "%"}, {"measurement": "Aquo species % in D2O at t0", "setting": "[2]", "value": 33, "unit": "%"}, {"measurement": "Aquo species % in DMEM-d/DMSO-d6 at t0", "setting": "[3]", "value": 0, "unit": "%"}, {"measurement": "Aquo species % in DMEM-d/DMSO-d6 after 24h", "setting": "[3]", "value": 16, "unit": "%"}, {"measurement": "residual complex % in DMEM-d/DMSO-d6", "setting": "[3]; [8]", "value": 98, "unit": "%"}, {"measurement": "SI (selectivity index)", "setting": "[4]", "value": 2.0}, {"measurement": "IC50", "setting": "[4]", "value": "9.9 ± 1.5", "unit": "µM"}, {"measurement": "Accumulation of ruthenium, ng Ru/10^6 cells", "setting": "[5]", "value": "59.4 ± 0.6", "unit": "ng Ru/10^6 cells"}, {"measurement": "decrease of TMRE fluorescence (mitochondrial depolarization)", "setting": "[6]", "value": "more pronounced"}, {"measurement": "effect on structure, shape, and layout of tubulin and actin networks", "setting": "[7]", "value": "did not significantly affect"}]}, {"substance": "[RuCl(κ^3-tpm)(PPh3)2]Cl [compound 1]", "values": [{"measurement": "solubility in water", "setting": "[1]", "value": "insoluble in water"}, {"measurement": "residual complex % in DMSO-d6/D2O", "setting": "[2]; DMSO-d6/D2O (4:1 v/v) mixture, after 48 h at 37 °C", "value": "69 ^c %"}, {"measurement": "residual complex % in DMEM-d/DMSO-d6", "setting": "[3]; compound 1: DMSO-d6/DMEM-d 4:1 v/v", "value": 88, "unit": "%"}, {"measurement": "SI (selectivity index)", "setting": "[4]", "value": 2.3}, {"measurement": "IC50", "setting": "[4]", "value": "2.5 ± 0.3", "unit": "µM"}, {"measurement": "Accumulation of ruthenium, ng Ru/10^6 cells", "setting": "[5]", "value": "145.1 ± 5.9", "unit": "ng Ru/10^6 cells"}, {"measurement": "decrease of TMRE fluorescence (mitochondrial depolarization)", "setting": "[6]", "value": "more pronounced"}, {"measurement": "effect on structure, shape, and layout of tubulin and actin networks", "setting": "[7]", "value": "did not significantly affect"}]}, {"substance": "[RuCl(κ^3-tpm)(PPh3){NCHN(Me)(CH)2}]Cl [compound 3]", "values": [{"measurement": "solubility", "setting": "[1]", "value": "3.4 10^–3 mol·L^–1"}, {"measurement": "Aquo species % in D2O after 48h", "setting": "[2]", "value": 93, "unit": "%"}, {"measurement": "residual complex % in D2O", "setting": "[2]; after 48 h at 37 °C", "value": 100, "unit": "%"}, {"measurement": "Aquo species % in D2O at t0", "setting": "[2]", "value": 75, "unit": "%"}, {"measurement": "Aquo species % in DMEM-d/DMSO-d6 at t0", "setting": "[3]", "value": 0, "unit": "%"}, {"measurement": "Aquo species % in DMEM-d/DMSO-d6 after 24h", "setting": "[3]", "value": 66, "unit": "%"}, {"measurement": "residual complex % in DMEM-d/DMSO-d6", "setting": "[3]; [8]", "value": 100, "unit": "%"}, {"measurement": "SI (selectivity index)", "setting": "[4]", "value": 2.0}, {"measurement": "IC50", "setting": "[4]", "value": "42.8 ± 4.2", "unit": "µM"}, {"measurement": "Accumulation of ruthenium, ng Ru/10^6 cells", "setting": "[5]", "value": "66.1 ± 8.0", "unit": "ng Ru/10^6 cells"}]}, {"substance": "[RuCl(κ^3-tpm)(PPh3){CNCH2P(O)(OEt2)2}]Cl [compound 9]", "values": [{"measurement": "solubility", "setting": "[1]", "value": "4.6 10^–3 mol·L^–1"}, {"measurement": "Aquo species % in D2O after 48h", "setting": "[2]", "value": 73, "unit": "%"}, {"measurement": "residual complex % in D2O", "setting": "[2]; after 48 h at 37 °C", "value": 93, "unit": "%"}, {"measurement": "Aquo species % in D2O at t0", "setting": "[2]", "value": 0, "unit": "%"}, {"measurement": "Aquo species % in DMEM-d/DMSO-d6 at t0", "setting": "[3]", "value": 0, "unit": "%"}, {"measurement": "Aquo species % in DMEM-d/DMSO-d6 after 24h", "setting": "[3]", "value": 17, "unit": "%"}, {"measurement": "residual complex % in DMEM-d/DMSO-d6", "setting": "[3]; [8]", "value": 97, "unit": "%"}, {"measurement": "SI (selectivity index)", "setting": "[4]", "value": 1.5}, {"measurement": "IC50", "setting": "[4]", "value": "35.2 ± 5", "unit": "µM"}, {"measurement": "Accumulation of ruthenium, ng Ru/10^6 cells", "setting": "[5]", "value": "16.2 ± 1.4", "unit": "ng Ru/10^6 cells"}]}]}
